Results on nine molecules are retold here after the supplement of paper PMC10883282.

SMILES strings stand for the structures. ± gives the standard deviation of the averaged measurements.

This test deals with SW982. Kind of test: relative viability vs DMSO control (72 h) (fraction); higher = more viable cells. The procedure, abridged: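 A 5 µM positive control and 0.1% DMSO vehicle ran alongside sarcoma cell lines seeded in 384-well plates to reach 80–90% confluence. Serially diluted compound, 2.5 µl from source plates of 10 mM to 0.0002 mM, was added after 24 h, and the plates were held 72 h at 37 °C, 5% CO2. Relative viability was worked out from ATPLite readings as percent growth averaged over up to triplicate wells. The values were rescaled so that 1 is full and 0 is none.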

Consider `CO[C@H]1C[C@@H]2CC[C@@H](C)[C@@](O)(O2)C(=O)C(=O)N2CCCC[C@H]2C(=O)O[C@H]([C@H](C)C[C@@H]2CC[C@@H](OP(C)(C)=O)[C@H](OC)C2)CC(=O)[C@H](C)/C=C(\C)[C@@H](O)[C@@H](OC)C(=O)[C@H](C)C[C@H](C)/C=C/C=C/C=C/1C` [Ridaforolimus], for which the relative viability reads like this: (0.00017 µM) 1.05 ± 0.027; (0.00051 µM) 0.956 ± 0.041; (0.00152 µM) 0.867 ± 0.06; (0.00457 µM) 0.825 ± 0.066; (0.01372 µM) 0.755 ± 0.074; (0.04115 µM) 0.711 ± 0.036. The relative viability by setting is: (0.1235 µM) 0.679 ± 0.015; (0.3704 µM) 0.652 ± 0.028; (1.111 µM) 0.652 ± 0.019; (3.333 µM) 0.619 ± 0.0085; (10 µM) 0.634 ± 0.03.
As for `O=C(Cc1ccc(-c2ccc(OCCN3CCOCC3)cc2)cn1)NCc1ccccc1` [KX2-391], the relative viability was determined as 1.01 ± 0.037 (0.00017 µM); 1.07 ± 0.021 (0.00051 µM); 1.06 ± 0.04 (0.00152 µM); 1.06 ± 0.013 (0.00457 µM); 1.037 ± 0.0061 (0.01372 µM); 0.661 ± 0.02 (0.04115 µM). The relative viability by setting is: (0.1235 µM) 0.299 ± 0.019; (0.3704 µM) 0.269 ± 0.017; (1.111 µM) 0.265 ± 0.023; (3.333 µM) 0.2804 ± 0.00064; (10 µM) 0.278 ± 0.0036.
`COc1cc2nccc(Oc3ccc(NC(=O)Nc4cc(C)on4)c(Cl)c3)c2cc1OC` [Tivozanib]: the relative viability runs as follows: (0.00017 µM) 1.06 ± 0.039; (0.00051 µM) 1.07 ± 0.048; (0.00152 µM) 1.06 ± 0.021; (0.00457 µM) 1.05 ± 0.037; (0.01372 µM) 1.08 ± 0.038; (0.04115 µM) 1.07 ± 0.033. In addition, the relative viability amounted to 1.08 ± 0.017 (0.1235 µM); 1.08 ± 0.046 (0.3704 µM); 1.07 ± 0.058 (1.111 µM); 0.985 ± 0.029 (3.333 µM); 0.571 ± 0.021 (10 µM).
Consider `CCc1cc2c(cc1N1CCC(N3CCOCC3)CC1)C(C)(C)c1[nH]c3cc(C#N)ccc3c1C2=O` [Alectinib], for which the relative viability reads like this: (0.00017 µM) 1.05 ± 0.043; (0.00051 µM) 1.06 ± 0.035; (0.00152 µM) 1.058 ± 0.0041; (0.00457 µM) 1.06 ± 0.026; (0.01372 µM) 1.04 ± 0.022; (0.04115 µM) 1.05 ± 0.017. The relative viability reads like this: (0.1235 µM) 1.032 ± 0.0038; (0.3704 µM) 1.05 ± 0.022; (1.111 µM) 1.07 ± 0.019; (3.333 µM) 1.06 ± 0.038; (10 µM) 1.06 ± 0.046.
With `COCc1c(-c2cc3cc(C)cc(OC)c3s2)c2c(N)ncnn2c1CN1CCNC(=O)C1` [Rogaratinib], the relative viability (0.00017 µM) stood at 1.05 ± 0.019; the relative viability (0.00051 µM) was 1.06 ± 0.028; the relative viability (0.00152 µM) was determined as 1.07 ± 0.058; the relative viability (0.00457 µM) was 1.06 ± 0.012; the relative viability (0.01372 µM) was determined as 1.06 ± 0.027; the relative viability (0.04115 µM) is 1.07 ± 0.028. The relative viability runs as follows: (0.1235 µM) 1.06 ± 0.065; (0.3704 µM) 1.06 ± 0.044; (1.111 µM) 0.996 ± 0.024; (3.333 µM) 0.728 ± 0.023; (10 µM) 0.362 ± 0.0075.
Consider `CN1CCC(COc2cnc(-c3cccc(Cn4nc(-c5cccc(C#N)c5)ccc4=O)c3)nc2)CC1` [Tepotinib], for which the relative viability came out at 1.02 ± 0.025 (0.00017 µM); 1.07 ± 0.027 (0.00051 µM); 1.051 ± 0.0014 (0.00152 µM); 1.07 ± 0.029 (0.00457 µM); 1.04 ± 0.019 (0.01372 µM); 1.06 ± 0.019 (0.04115 µM). Also, the relative viability runs as follows: (0.1235 µM) 1.062 ± 0.0073; (0.3704 µM) 1.03 ± 0.035; (1.111 µM) 1.04 ± 0.059; (3.333 µM) 1.02 ± 0.027; (10 µM) 0.777 ± 0.025.
Take `Cc1cnc(Nc2ccc(OCCN3CCCC3)cc2)nc1Nc1cccc(S(=O)(=O)NC(C)(C)C)c1` [Fedratinib]: the relative viability by setting is: (0.00017 µM) 1.03 ± 0.012; (0.00051 µM) 1.03 ± 0.033; (0.00152 µM) 1.07 ± 0.021; (0.00457 µM) 1.07 ± 0.016; (0.01372 µM) 1.088 ± 0.0018; (0.04115 µM) 1.06 ± 0.024. Further, the relative viability is, setting by setting: (0.1235 µM) 0.846 ± 0.052; (0.3704 µM) 0.394 ± 0.013; (1.111 µM) 0.161 ± 0.0068; (3.333 µM) 0.0074 ± 0.0013; (10 µM) 0.00487 ± 0.00038.
`Cn1cnc2c(F)c(Nc3ccc(Br)cc3F)c(C(=O)NOCCO)cc21` [Binimetinib]: the relative viability came out at 0.974 ± 0.046 (0.00017 µM); 1.04 ± 0.019 (0.00051 µM); 1.07 ± 0.018 (0.00152 µM); 0.981 ± 0.056 (0.00457 µM); 0.99 ± 0.05 (0.01372 µM); 0.92 ± 0.058 (0.04115 µM). In addition, the relative viability stood at 0.833 ± 0.043 (0.1235 µM); 0.831 ± 0.051 (0.3704 µM); 0.809 ± 0.038 (1.111 µM); 0.786 ± 0.035 (3.333 µM); 0.765 ± 0.042 (10 µM).
As for `C[C@@H]1CCN(C(=O)CC#N)C[C@@H]1N(C)c1ncnc2[nH]ccc12` [Tofacitinib], the relative viability (0.00017 µM) was determined as 1.01 ± 0.036; the relative viability (0.00051 µM) turned out to be 1.05 ± 0.03; the relative viability (0.00152 µM) was determined as 1.04 ± 0.03; the relative viability (0.00457 µM) was found to be 1.03 ± 0.031; the relative viability (0.01372 µM) was 1.07 ± 0.037; the relative viability (0.04115 µM) turned out to be 1.03 ± 0.05. In addition, the relative viability was 1.05 ± 0.05 (0.1235 µM); 1.06 ± 0.035 (0.3704 µM); 1.05 ± 0.042 (1.111 µM); 1.04 ± 0.034 (3.333 µM); 0.93 ± 0.081 (10 µM).
